Reference: patent publication US12090225B2 (Avalyn Pharma Inc., priority 2018, dated 2024)
Counter-ions that a name gives are not always drawn.

Experiments:
[1] = Feasibility assessment of ready-to-use nintedanib HBr, HCl and esylate formulations; type: physicochemical; conditions: NaCl at 10 mM; by itself
[2] = Inhaled pharmacokinetics of nintedanib salt forms (intratracheal); type: in vivo, C57BL/6 mice; conditions: female, C57BL/6, mouse, lung, inhaled or intranasal, 1 mg/kg, 1 mg/kg (base equivalent) IT, mice; read-out: lung half-life
[3] = 7 day stability testing of salts (40° C./75% RH, 80° C., ambient light; HPLC purity, XRPD); type: physicochemical; conditions: listed as HCl salt
Experimental: High Performance Liquid Chromatography-Ultraviolet Detection (HPLC-UV): Instrument: Dionex Ultimate 3000; Column: Acquity CSH C18 100 mm×2.1 mm 1.7 μm; Column Temperature: 50° C.; Autosampler Temperature: Ambient; UV wavelength: 210 nm; Injection Volume: 4 μL; Flow Rate: 0.6 mL/min; Mobile Phase A: 0.1% formic acid in water; Mobile Phase B: 0.1% formic acid in acetonitrile. The HPLC method used the gradient in Table 2.
FT-IR appeared to be consistent with the structure. […] The material was physically stable to changes in temperature and humidity when stored for one week.
A new, poorly crystalline pattern was produced when stored at 40° C./75% RH—Pattern 4.
Purity of these materials remained unchanged (as shown in Table) apart from the sample stored at ambient light, where a 0.5% drop in purity was observed.

Water pH titration = type: physicochemical; conditions: 2 mg/mL Nintedanib slurry HCl sample
[4] = 0.5 mg/mL solubility assessment (filtered/unfiltered); type: physicochemical; conditions: 0.5 mg/mL experiment; for pH: listed as HCl
[5] = Solid state and chemical stability of nintedanib HBr and HCl salts through 6 months; type: physicochemical; conditions: for Weight loss: TGA/DSC
Source text: Table 24 and Table 25 summarize the total impurities (by HPLC), polymorphic form (by X-ray powder diffraction) and, where applicable, weight loss (by TGA/DSC) for both the HCl and HBr salt forms. […] There were no changes in polymorphic form for both salt forms stored at 25 C/60% RH condition.

[6] = Disproportionation/hydration studies (pH, XRPD pattern); type: physicochemical; conditions: for pH Pre-Agitation: listed as HCl salt
Source text: No XRPD data could be compiled on the hydration or disproportionation of the salt due to the high solubility in water and acetone/water mixtures.
The salt only remained Pattern 1 at 0.3 aw. New patterns 6 and 7 are likely hydrated due to the high water activity conditions for production.

[7] = Dynamic Vapour Sorption (DVS) hygroscopicity; type: physicochemical; conditions: for DVS mass uptake at 90% RH: 25° C., uptake from input material; for Hygroscopicity: DVS
Experimental: Dynamic Vapour Sorption (DVS). Approximately, 10 mg of sample was placed into a mesh vapour sorption balance pan and loaded into a DVS-1 or DVS Advantage dynamic vapour sorption balance by Surface Measurement Systems. The sample was subjected to a ramping profile from 40-90% relative humidity (RH) at 10% increments, maintaining the sample at each step until a stable weight had been achieved (dm/dt 0.004%, minimum step length 30 minutes, maximum step length 500 minutes) at 25° C. After completion of the sorption cycle, the sample was dried using the same procedure to 0% RH and then a second sorption cycle back to 40% RH. Two cycles were performed. The weight change during the sorption/desorption cycles were plotted, allowing for the hygroscopic nature of the sample to be determined. XRPD analysis was then carried out on any solid retained.

[8] = Aqueous solubility assessment of salts; type: physicochemical
[9] = Pattern stability screen of potential salts (40° C./75% RH, XRPD); type: physicochemical
Experimental: XRPD analysis was carried out on a PANalytical X'pert pro, scanning the samples between 3 and 35° 20. The material was gently compressed and loaded onto a multi-well plate with Kapton or Mylar polymer film to support the sample.
Primary Salt Screening. […] The solvent systems shown in Table were selected for salt screening. For sulfonic acids MEK was used instead of methanol and acetone:water 50:50 (v/v) was used instead of IPA:water to avoid any potential genotoxic impurities. Ca. […] If the acid was insoluble in the selected solvent, a slurry was used. If the acid was a liquid it was added to the API slurry from a stock solution in the allocated solvent. The mixtures of API/counterion/solvent were temperature cycled between ambient and 40° C. in 4 hour cycles for ca. 3 days. Any solids present were isolated and allowed to dry at ambient conditions, for ca. 30 minutes prior to analysis by XRPD. Where solutions were obtained they were evaporated to obtain solid material.

[10] = HBr and HCl salts-filter compatibility study; type: physicochemical; conditions: for visual appearance after filtration: 3% PG solution, glass vials, ambient room condition; for Visual appearance: listed as Nintedanib HCl Salt
Experimental: HBr and HCl salts-filter compatibility study: this study was conducted to assess the compatibility of the HBr and the HCl salts with various membrane filters. […] The glass vials were stored at ambient room condition and visual appearance was periodically inspected.

[11] = Citrate buffer formulation; type: physicochemical
[12] = 40° C./75% RH, 2 months, listed as Nintedanib HCl salt
[13] = 40° C./75% RH, 6 months, listed as Nintedanib HCl salt
[14] = Water Activity 0.3 (acetone/water)
[15] = Water Activity 0.6 (acetone/water)
[16] = Water Activity 0.9 (acetone/water)
[17] = 0.5 mg/mL citrate buffer experiments, listed as HCl

Q: For `COC(=O)c1ccc2c(c1)NC(=O)/C2=C(\Nc1ccc(N(C)C(=O)CN2CCN(C)CC2)cc1)c1ccccc1` [Nintedanib HCl], which “compatibility with NaCl” value [1] is on record?
A: not compatible

Q: What about the half-life [2] of the same compound?
A: ~4 min

Q: What about the “XRPD pattern after 7 day stability testing” value ([3]; 40° C./75% RH, 80° C. and ambient light (all conditions)) of the same compound?
A: remain pattern 1

Q: What about the “Purity (%)” value ([3]; 40° C./75% RH, 7 day stability testing) of the same compound?
A: 99.9%

Q: And the “Purity (%)” value ([3]; 80° C., 7 day stability testing)?
A: 99.9%

Q: What about the “Purity (%)” value ([3]; Ambient, 7 day stability testing) of the same compound?
A: 99.9%

Q: What about the “Purity (%)” value ([3]; Input) of the same compound?
A: 99.9%

Q: What about the pH upon cooling (Water pH titration) of the same compound?
A: 4.76

Q: And the “concentration of the filtered sample” value (Water pH titration; by HPLC)?
A: 1700 µg/mL

Q: What about the “concentration for filtered sample compared to unfiltered” value ([4]; listed as HCl salt) of the same compound?
A: 99%

Q: What about the pH ([4]; Filtered) of the same compound?
A: 5.36

Q: And the pH ([4]; Unfiltered)?
A: 5.28

Q: What about the Total impurities ([5]; 25° C./60 % RH, 1 week, listed as Nintedanib HCl salt) of the same compound?
A: 0.41%

Q: What about the Total impurities ([5]; 25° C./60 % RH, 2 months, listed as Nintedanib HCl salt) of the same compound?
A: 0.36%

Q: What about the Total impurities ([5]; 25° C./60 % RH, 4 weeks, listed as Nintedanib HCl salt) of the same compound?
A: 0.36%

Q: What about the Total impurities ([5]; 25° C./60 % RH, 6 months, listed as Nintedanib HCl salt) of the same compound?
A: 0.46%

Q: And the Total impurities ([5]; 25° C./60 % RH, Initial)?
A: 0.29%

Q: And the Weight loss ([5]; 25° C./60 % RH, Initial, listed as Nintedanib HCl salt)?
A: 0.82%

Q: What about the Polymorphic form ([5]; 40° C./75% RH, 1 week) of the same compound?
A: Pattern 1

Q: What about the Total impurities ([5]; 40° C./75% RH, 1 week, listed as Nintedanib HCl salt) of the same compound?
A: 0.39%

Q: And the Polymorphic form [5, 12]?
A: Pattern 1

Q: And the Total impurities [5, 12]?
A: 0.37%

Q: And the Total impurities ([5]; 40° C./75% RH, 4 weeks)?
A: 0.34%

Q: And the Polymorphic form ([5]; 40° C./75% RH, 4 weeks, listed as Nintedanib HCl salt)?
A: Pattern 1

Q: What about the Polymorphic form [5, 13] of the same compound?
A: Pattern 1

Q: What about the Total impurities [5, 13] of the same compound?
A: 0.52%

Q: What about the Polymorphic form ([5]; 40° C./75% RH, Initial) of the same compound?
A: Pattern 1

Q: And the Total impurities ([5]; 40° C./75% RH, Initial)?
A: 0.29%

Q: And the Weight loss ([5]; 40° C./75% RH, Initial, listed as Nintedanib HCl salt)?
A: 0.82%

Q: And the “pH Post-Agitation” value [6, 14]?
A: 2.45

Q: And the “pH Pre-Agitation” value [6, 14]?
A: 1.94

Q: And the “pH Post-Agitation” value [6, 15]?
A: 2.33

Q: And the “pH Pre-Agitation” value [6, 15]?
A: 2.32

Q: What about the “pH Post-Agitation” value [6, 16] of the same compound?
A: 2.24

Q: What about the “pH Pre-Agitation” value [6, 16] of the same compound?
A: 1.89

Q: What about the “pH Post-Agitation” value ([6]; Water Activity 1.0 (water)) of the same compound?
A: 2.33

Q: What about the “pH Pre-Agitation” value ([6]; Water Activity 1.0 (water)) of the same compound?
A: 2.05

Q: What about the “DVS mass uptake at 90% RH” value ([7]; listed as HCl) of the same compound?
A: further 2.2% uptake up

Q: And the “DVS mass uptake at 90% RH” value ([7]; listed as HCl salt)?
A: ca. 2.2%

Q: What about the Hygroscopicity ([7]; listed as HCl) of the same compound?
A: Hygroscopic

Q: What about the Hygroscopicity ([7]; listed as HCl salt) of the same compound?
A: hygroscopic

Q: What about the “Post-DVS XRPD pattern” value ([7]; listed as HCl) of the same compound?
A: Pattern unchanged

Q: What about the “Post-DVS XRPD pattern” value ([7]; listed as HCl salt) of the same compound?
A: remain unchanged

Q: And the “pH at 6 h” value ([8]; salt in water, after agitation)?
A: 2.26

Q: What about the “pH at 18 h” value ([8]; salt in water, after agitation) of the same compound?
A: 2.08

Q: And the “Initial pH” value ([8]; salt in water, solubility assessment)?
A: 2.22

Q: And the solubility ([8]; thermodynamic from solid, deionized water added to 20 mg of salt, read-out: solubility in water)?
A: ~11 mg/mL

Q: What about the “XRPD pattern after 72 hrs 40° C./75% RH” value ([9]; Initial pattern 1) of the same compound?
A: 1

Q: And the “XRPD pattern after 72 hrs 40° C./75% RH” value ([9]; Initial pattern 2)?
A: 2

Q: And the “XRPD pattern after 72 hrs 40° C./75% RH” value ([9]; Initial pattern 3, listed as HCl)?
A: 1

Q: What about the “visual appearance after filtration” value ([10]; 0.22 μm PES filter) of the same compound?
A: light precipitation after 2 weeks

Q: What about the “visual appearance after filtration” value ([10]; 0.22 μm PVDF filter) of the same compound?
A: precipitated shortly after filtration

Q: And the “visual appearance after filtration” value ([10]; 0.22 μm nylon filter)?
A: no change in appearance through 1 month

Q: What about the Visual appearance ([10]; PTFE filter, 1 month) of the same compound?
A: Precipitation

Q: And the Visual appearance ([10]; PTFE filter, 1 week)?
A: Precipitation

Q: What about the Visual appearance ([10]; PTFE filter, 2 weeks) of the same compound?
A: Precipitation

Q: And the Visual appearance ([10]; PVFD filter, 1 month)?
A: Precipitation

Q: What about the Visual appearance ([10]; PVFD filter, 1 week) of the same compound?
A: Precipitation

Q: What about the Visual appearance ([10]; PVFD filter, 2 weeks) of the same compound?
A: Precipitation

Q: What about the Visual appearance ([10]; PVFD filter, Initial) of the same compound?
A: Precipitation

Q: And the “Initial pH” value [11, 17]?
A: 4.84

Q: And the “pH 1 h” value [11, 17]?
A: 4.80

Q: And the “attempt to solubilize in citrate buffer” value ([11]; pH 4.75 citrate buffer, ~1.7 mg/mL (Nintedanib))?
A: unsuccessful
